Results from PubChem BioAssay (NCI).
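Briefly, cells in 96-well plates were exposed to five compound concentrations for 48 h, and endpoints were estimated by linear interpolation. At the GI50, growth is halved. TGI denotes the concentration required for complete inhibition of growth.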

Key:
Assay in all cases: NCI-60 cell line screen, 48 h
A498 renal = tested on: A498 renal
CAKI-1 renal = tested on: CAKI-1 renal
COLO 205 colon = tested on: COLO 205 colon
HS 578T breast = tested on: HS 578T breast
MALME-3M melanoma = tested on: MALME-3M melanoma
NCI-H23 lung = tested on: NCI-H23 lung
NCI-H522 lung = tested on: NCI-H522 lung
RXF 393 renal = tested on: RXF 393 renal
SN12C renal = tested on: SN12C renal
UACC-62 melanoma = tested on: UACC-62 melanoma

Structure (SMILES)	GI50 (A498 renal) [µM]	TGI (A498 renal) [µM]	GI50 (CAKI-1 renal) [µM]	TGI (CAKI-1 renal) [µM]	GI50 (COLO 205 colon) [µM]	TGI (COLO 205 colon) [µM]	GI50 (HS 578T breast) [µM]	TGI (HS 578T breast) [µM]	GI50 (MALME-3M melanoma) [µM]	TGI (MALME-3M melanoma) [µM]	GI50 (NCI-H23 lung) [µM]	TGI (NCI-H23 lung) [µM]	GI50 (NCI-H522 lung) [µM]	TGI (NCI-H522 lung) [µM]	GI50 (RXF 393 renal) [µM]	TGI (RXF 393 renal) [µM]	GI50 (SN12C renal) [µM]	TGI (SN12C renal) [µM]	GI50 (UACC-62 melanoma) [µM]	TGI (UACC-62 melanoma) [µM]
Cc1ccc(-c2nc([P+](c3ccccc3)(c3ccccc3)c3ccccc3)c(S(=O)(=O)c3ccc(C)cc3)o2)cc1	1.61	4.77	1.36	2.71	1.71	4.28	1.7	5.31	1.02	2.19	1.68	3.5	1.6	3.67	1.4	2.79	1.06	2.34	1.53	2.89
C(=N/N(Cc1ccccc1)Cc1ccccc1)/c1ccccc1	94.9	> 100	> 100	> 100	> 100	> 100	51.1	> 100	41.1	> 100	90.8	> 100	> 100	> 100	66.3	> 100	> 100	> 100	75	> 100
COC1=C(OC)C(=O)C(SC/C=C(\C)CCCC(C)CCCC(C)CCCC(C)C)=CC1=O (centres undefined)	1.57	6.05	6.64	> 37	8.49	> 100	0.709	> 48.4	0.513	–	1.37	36.1	0.635	> 38.1	1.36	> 91.6	0.741	> 100	0.797	> 100
COC1C(N)C(OC2C(Oc3cccc4c(O)c5c(=O)oc6ccc(C)c7c(=O)oc(c34)c5c67)OC(C)C(O)C2(C)O)OC(C)C1O (centres undefined)	–	0.155	–	1.45	–	0.383	–	0.886	–	0.171	–	0.249	–	0.181	–	0.138	–	0.547	–	0.147
c1ccc2c(c1)Nc1ccncc1S2	5.13	24.4	11.4	56	11.5	37.1	11.4	48.4	28.2	89.8	20.7	> 100	11.8	65.7	11.9	32	27.8	> 100	16.5	56.9
O=C(CC1(O)C(=O)N(Cc2ccccc2)c2ccccc21)c1ccc(C(=O)NCC2CCC3(CC2)OOC2(CCCCC2)OO3)cc1 (centres undefined)	2.42	7.32	0.577	1.14	1.93	4.51	2.76	7.81	0.566	2	0.402	1.28	0.24	0.73	0.705	1.98	1.66	3.76	2.2	5.44
C[N+](C)(C)CC1CCCC1=O (centres undefined)	–	17.7	–	6.61	–	2.99	–	16.6	–	1.61	–	9.67	–	0.0171	–	5.3	–	5.56	–	5.67
CC1=C(CC(=O)c2cccc([N+](=O)[O-])c2)C(=O)c2ccccc2C1=O	42.5	> 100	21.7	> 100	19.7	37.6	4.74	48.6	4.95	18.3	9.12	36.9	2.97	8.84	3.14	16.6	2.61	8.39	2.63	8.4
COC(=O)[C@H]1CCCN1C(=O)[C@H]1CCCN1C(=O)[C@@H](Cc1c[nH]c2ccccc12)NC(=S)Nc1cc(C(F)(F)F)cc(C(F)(F)F)c1	1.67	5.65	2.1	5.63	1.83	3.49	2.03	5.17	1.75	3.31	2.07	4.68	1.73	3.51	1.34	2.72	1.69	3.19	1.84	3.79
O=C(Nc1cccc(-n2cc(-c3ccncc3)c(-c3cc(O)cc(Cl)c3)n2)c1)c1cc(C(F)(F)F)cc(C(F)(F)F)c1	4.75	90.8	3.67	> 100	2.32	5.74	6.38	> 100	3.69	94.4	4.16	46.5	1.6	8.37	1.69	4.35	4.77	> 100	3.79	22.4
C#CCNC(=O)[C@H](CC)[C@H]1CC[C@H](C)[C@H]([C@@H](C)[C@H](O)[C@H](C)C(=O)[C@H](CC)C2O[C@]3(C=CC(=O)[C@]4(CC[C@@](C)([C@H]5CC[C@](O)(CC)[C@H](C)O5)O4)O3)[C@H](C)C[C@@H]2C)O1 (some centres undefined)	2.19	6.07	1.78	7.02	1.84	3.52	2.06	6.71	2.05	6.15	2.83	> 100	1.87	5.39	2.48	7.63	2.29	6.58	1.68	4.28
Nc1nc(Nc2ccccc2SSc2ccccc2Nc2nc(N)nc(C(Cl)(Cl)Cl)n2)nc(C(Cl)(Cl)Cl)n1	24.3	88.8	3.01	10.5	17.6	34.9	5.44	> 100	5.9	18.6	3.66	13.9	2.6	10.3	3.47	10.3	2.46	7.26	2.94	11.4
N#CCCN1C/C(=C/c2ccc(Cl)cc2)C(=O)/C(=C/c2ccc(Cl)cc2)C1	1.59	3.11	2.95	12	1.25	2.64	2.9	12.8	2.24	5.22	2.18	5.61	1.77	3.41	1.22	2.61	1.44	3.39	1.8	4.1
c1ccc(CCc2cccnc2)nc1	–	> 100	–	> 100	–	> 100	–	> 100	–	> 100	–	> 100	–	> 100	–	> 100	–	> 100	–	> 100
OCCNC1c2cc(Cl)ccc2-c2c(Cl)cc(Cl)cc21 (centres undefined)	–	> 100	–	> 100	–	> 100	–	> 100	–	> 100	–	> 100	–	> 100	–	> 100	–	86.3	–	> 100
CC1OC(OC2C(O)CC(OC3C(O)CC(OC4CCC5(C)C(CCC6C5CC(O)C5(C)C(C7=CC(=O)OC7)CCC65O)C4)OC3C)OC2C)CC(O)C1O (centres undefined)	0.107	0.544	0.0416	0.204	0.131	0.272	0.042	2.3	0.0373	0.16	0.0235	0.0662	0.0225	0.0639	0.0293	0.0994	0.0391	0.248	0.157	0.333
COC1C(O)C(CO)OC(OC2C(O)COC(OC3C(C)OC(OC4C(O[C@H]5CC[C@@]6(C)C(CC=C7[C@H]6CCC68C(=O)O[C@@](C)(CCCC(C)C)[C@H]6[C@@H](OC(C)=O)C[C@@]78C)C5(C)C)OCC(OS(=O)(=O)O)C4O)C(OC4OCC(O)C(O)C4O)C3O)C2O)C1O (some centres undefined)	0.324	0.821	0.303	0.922	0.0738	0.286	0.245	0.598	0.242	0.671	0.113	0.287	0.194	0.497	0.184	0.66	0.11	0.3	0.175	0.353
